In test [1] the test system is IL-17A secretion in activated PBMCs. Description: IL-17A secretion in activated PBMCs. Type of test: cell-based. The note with it: human PBMCs stimulated with CD3/CD28 Dynabeads for 48 h, absolute IC50. From the text:
Heparin-treated whole blood from healthy human volunteers was supplied from Hospital de Sant Pau (Barcelona) under the approval of the local ethical review board for human studies (Hospital de Sant Pau, Barcelona, Spain). Human peripheral blood mononuclear cells (PBMCs) were isolated from healthy human volunteers by density gradient centrifugation using the Ficoll-Paque (GE Healthcare). PBMCs were suspended in cell culture medium which consisted on RPMI 1640 medium (Sigma-Aldrich) containing 10% heat inactivated fetal bovine serum (Sigma-Aldrich), 2 mM L-Glutamine (Gibco), 20 mM Hepes (Gibco) and 100 U/mL penicillin (Sigma-Aldrich). Cells were seeded in 384-well plate (DiscoverX), at 40,000 cells per well and cultured 2 h at 37° C. and 5% CO2.
Dose-response curves with compounds were prepared using a 5-fold serial dilution (10 concentrations) in 100% DMSO and further diluted 100-fold in culture medium. Compound solutions (5 μL) were added to the plate containing cells (final DMSO concentration of 0.1%) and incubated for 30 min. Then, cells were stimulated with CD3/CD28 Dynabeads (ThermoFisher, at a bead-to-cell ratio of 1:1) for 48 h at 37° C. and 5% CO2.
IL-17A levels in supernatant were determined by immunoassay using hIL17A QBeads (Intellicyt) and by fluorescence analysis in iQue flow cytometer following the manufacturer's instructions. Inhibition of IL-17A secretion was calculated using the following formula: inhibition=100*[1−[(x−mean basal condition)/(mean top condition—mean basal condition)]]. Activated DMSO-treated cells were used as top condition and activated GNE09461 (10 μM)-treated cells as basal condition.

Test [2] deals with T1, RORγ ligand-binding domain (Homo sapiens, UniProt P51449).
T1 construct: Gal4 (galactose-responsive transcription factor); expressed in transfected cells; host or cells: HEK293, transient co-transfection
T1 sequence (P51449 269-508 limits assumed): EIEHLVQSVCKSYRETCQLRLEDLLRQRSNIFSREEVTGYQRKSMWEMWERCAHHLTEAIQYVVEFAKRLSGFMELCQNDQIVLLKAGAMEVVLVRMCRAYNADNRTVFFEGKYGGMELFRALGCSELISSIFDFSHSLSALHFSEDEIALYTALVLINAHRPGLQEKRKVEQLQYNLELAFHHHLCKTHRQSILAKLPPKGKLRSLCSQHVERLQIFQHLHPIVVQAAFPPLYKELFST
The test is described as follows: RORγ Reporter Assay (Gal4). Type of test: cell-based. The protocol:
The HEK293 cell line is co-transfected transiently with two plasmids, one with the RORγ ligand-binding domain fused to galactose-responsive transcription factor (Ga14), and the other with the luciferase reporter gene and Gal binding sites (UAS). This construction allows to determine the RORT activity in a cellular system through the measurement of luminescence.
A suspension of RORγ reporter cells was dispensed into plates and cultured 2 h at 37° C. and 5% CO2. Media formulation consisted in DMEM/F-12 medium (Gibco) supplemented with 10% heat inactivated FBS (Sigma-Aldrich), non-essential aminoacids (Sigma-Aldrich), 2 mM Glutamax (Gibco) and 100 U/mL penicillin (Sigma-Aldrich). Dose-response curves with compounds were prepared in 100% DMSO and further diluted 100-fold in culture medium. Compound solutions were added to the plate containing cells (final DMSO concentration of 0.1%) and incubated for 24 h at 37° C. and 5% CO2. Luciferase detection reagent was added to each well, and relative light units (RLUs) were quantified from each assay well using a plate reading luminometer.
Values of average RLU±S.D. were computed for all treatment sets, followed by the calculations of percent-reduction of RORT activity in response to respective test compound. The following formula was used: activity=100*[1−[[…]] where the theoretical minimum reduction (0% reduction). […] These calculations were performed in excel-fit software using X-204 model curve.
For orientation: A reporter such as luciferase makes a cellular process visible.

Setting [3] is: HEK293 cells, luciferase reporter, 24 h incubation, absolute IC50, read-out: IC50.

Each structure is given as a SMILES string. Like-named read-outs stand apart in the source and are kept apart here.

Turning to `NC(=O)CN1CC[C@@H](Cn2ccc3c(N(Cc4ccc(C(F)(F)F)cc4)C4CC4)ncnc32)[C@H](O)C1` (single isomer, unassigned) [Example P6-13-2], the results for the IC50 in test [1] and in test [2] (setting [3]) were 1.3 nM and 2 nM, respectively. Regarding `CN(Cc1ccc(C(F)(F)F)cc1)c1ncnc2c1c(F)cn2C[C@@H]1CCN(CC(N)=O)C[C@H]1O` (racemic) [Example P6-12, rac-2-((3R,4R)-4-((5-fluoro-4-(methyl(4-(trifluoromethyl)benzyl)amino)-7H-pyrrolo[2,3-d]pyrimidin-7-yl)methyl)-3-hydroxypiperidin-1-yl)acetamide], the IC50 in test [1] (Homo sapiens, PBMC, 48 h) was found to be 30 nM; in test [2] (setting [3]) it was 5.2 nM.

As to `NC(=O)CN1CC[C@@H](Cn2ccc3c(N(Cc4ccc(C(F)(F)F)nc4)C4CC4)ncnc32)[C@H](O)C1` (racemic) [Example P6-16, rac-2-((3R,4R)-4-((4-(cyclopropyl((6-(trifluoromethyl)pyridin-3-yl)methyl)amino)-7H-pyrrolo[2,3-d]pyrimidin-7-yl)methyl)-3-hydroxypiperidin-1-yl)acetamide], the IC50 in test [1] (Homo sapiens, PBMC, 48 h) is 17 nM; in test [2] (setting [3]), 5 nM.

As to `CCN(Cc1ccc(C(F)(F)F)cc1)c1ncnc2c1ccn2C[C@@H]1CCN(CC(N)=O)C[C@H]1O` (racemic) [Example P6-24, rac-2-((3R,4R)-4-((4-(ethyl(4-(trifluoromethyl)benzyl)amino)-7H-pyrrolo[2,3-d]pyrimidin-7-yl)methyl)-3-hydroxypiperidin-1-yl)acetamide], the IC50 in test [1] (Homo sapiens, PBMC, 48 h) came out at 22 nM; in test [2] (setting [3]), 4.6 nM. The matching figures for `NC(=O)CN1CCC(Cn2cc(F)c3c(N(Cc4ccc(C(F)(F)F)cc4)C4CC4)ncnc32)CC1` [Example P6-05, 2-(4-((4-(cyclopropyl(4-(trifluoromethyl)benzyl)amino)-5-fluoro-7H-pyrrolo[2,3-d]pyrimidin-7-yl)methyl)piperidin-1-yl)acetamide]: 20 nM and 62 nM. The corresponding values for `CCN(Cc1ccc(C(F)(F)F)cc1F)c1ncnc2c1ccn2C[C@@H]1CCN(CC(N)=O)C[C@H]1O` (relative stereo) [P6-32″, rel-2-((3R,4R)-4-((4-(ethyl(2-fluoro-4-(trifluoromethyl)benzyl)amino)-7H-pyrrolo[2,3-d]pyrimidin-7-yl)methyl)-3-hydroxypiperidin-1-yl)acetamide] are 8.4 nM and 2 nM. With `NC(=O)CN1CC[C@@H](Cn2ccc3c(N(Cc4ccc(-n5cccn5)cc4)C4CC4)ncnc32)[C@H](O)C1` (relative stereo) [P6-33″, rel-2-((3R,4R)-4-((4-((4-(1H-pyrazol-1-yl)benzyl)(cyclopropyl)amino)-7H-pyrrolo[2,3-d]pyrimidin-7-yl)methyl)-3-hydroxypiperidin-1-yl)acetamide], the IC50 in test [1] (Homo sapiens, PBMC, 48 h) turned out to be 9.9 nM; in test [2] (setting [3]), 8.5 nM. The corresponding values for `CCN(Cc1ccc(C(F)(F)F)c(F)c1)c1ncnc2c1ccn2C[C@@H]1CCN(CC(N)=O)C[C@H]1O` (relative stereo) [P6-31″, rel-2-((3R,4R)-4-((4-(ethyl(3-fluoro-4-(trifluoromethyl)benzyl)amino)-7H-pyrrolo[2,3-d]pyrimidin-7-yl)methyl)-3-hydroxypiperidin-1-yl)acetamide] are 6 nM and 1.9 nM. For the compound `NC(=O)CN1CC[C@](O)(Cn2ccc3c(N(Cc4ccc(-n5cccn5)cc4)C4CC4)ncnc32)[C@@H](O)C1` (relative stereo) [R5-2″, Rel-2-((3R,4R)-4-((4-((4-(1H-pyrazol-1-yl)benzyl)(cyclopropyl)amino)-7H-pyrrolo[2,3-d]pyrimidin-7-yl)methyl)-3,4-dihydroxypiperidin-1-yl)acetamide], the IC50 in test [1] (Homo sapiens, PBMC, 48 h) came out at 7.4 nM; in test [2] (setting [3]) it was 8.1 nM. Turning to `CC(C)N(Cc1ccc(C(F)(F)F)cc1)c1ncnc2c1ccn2C[C@@H]1CCN(CC(N)=O)C[C@H]1O` (single isomer, unassigned) [Example P6-25-1], the IC50 in test [1] (Homo sapiens, PBMC, 48 h) is 110 nM; in test [2] (setting [3]) it was 12 nM. The matching figures for `Cn1cc(-c2ccc(CN(c3ncnc4c3ccn4C[C@@]3(O)CCN(CC(N)=O)C[C@@H]3O)C3CC3)c(F)c2)cn1` (relative stereo) [R5-3″, rel-2-((3R,4R)-4-((4-(cyclopropyl(2-fluoro-4-(1-methyl-1H-pyrazol-4-yl)benzyl)amino)-7H-pyrrolo[2,3-d]pyrimidin-7-yl)methyl)-3,4-dihydroxypiperidin-1-yl)acetamide]: 11 nM and 4 nM. The corresponding values for `NC(=O)CN1CC[C@@H](Cn2cnc3c(N(Cc4ccc(C(F)(F)F)cc4)C4CC4)ncnc32)[C@H](O)C1` (single isomer, unassigned) [Example P6-26-2] are 65 nM and 5 nM. As to `NC(=O)CN1CC[C@@H](Cn2ccc3c(N4CCOC[C@@H]4c4ccc(C(F)(F)F)cc4)ncnc32)[C@H](O)C1` (single isomer, unassigned) [Example P6-01-1, 2-((3R*,4R*)-3-hydroxy-4-((4-((S)-3-(4-(trifluoromethyl)phenyl)morpholino)-7H-pyrrolo[2,3-d]pyrimidin-7-yl)methyl)piperidin-1-yl)acetamide], the IC50 in test [2] (setting [3]) came out at 12 nM. As to `CCN(Cc1ccc(C#N)cc1)c1ncnc2c1ccn2C[C@@H]1CCN(CC(N)=O)C[C@H]1O` (relative stereo) [P6-29″, rel-2-((3R,4R)-4-((4-((4-cyanobenzyl)(ethyl)amino)-7H-pyrrolo[2,3-d]pyrimidin-7-yl)methyl)-3-hydroxypiperidin-1-yl)acetamide], the IC50 in test [2] (setting [3]) was above 1000 nM. The same measure, in the same setting: for `NC(=O)CN1CC[C@@H](Cn2ccc3c(N4CCOC[C@@H]4c4ccc(C(F)(F)F)cn4)ncnc32)[C@H](F)C1` (single isomer, unassigned) [Example Q4-1-2, 2-((3R*,4R*)-3-fluoro-4-((4-((S)-3-(5-(trifluoromethyl)pyridin-2-yl)morpholino)-7H-pyrrolo[2,3-d]pyrimidin-7-yl)methyl)piperidin-1-yl)acetamide] the value was 250 nM; for `NC(=O)CN1CCC(Cn2ccc3c(N(Cc4ccc(C(F)(F)F)cc4)C4CC4)ncnc32)C(F)(F)C1` (single isomer, unassigned) [Example K8-1-1], 9 nM.

As for `CC(C)(C(N)=O)N1CCC(Cn2cnc3c(N(Cc4ccc(C(F)(F)F)cc4)C4CC4)ncnc32)CC1` [Example P6-09, 2-(4-((6-(cyclopropyl(4-(trifluoromethyl)benzyl)amino)-9H-purin-9-yl)methyl)piperidin-1-yl)-2-methylpropanamide], the IC50 in test [2] (setting [3]) is above 1000 nM.

Turning to `NC(=O)Cc1ccc(Cn2ccc3c(N4CCOC[C@@H]4c4ccc(C(F)(F)F)cn4)ncnc32)cc1` [Example 328, reference compound], the IC50 in test [2] (Table 5 b, bound estimated from % inhibition at 0.1 and/or 1 uM, read-out: RORγ Gal4 assay (based on % inhibition at 0.1 and/or 1 uM) IC50) is below 100 nM; in test [2] (stated as a bound only (Tables 5 a, 6, 7), read-out: Gal4 assay IC50), below 100 nM. Consider `CCN(Cc1ccc(-n2cccn2)cc1F)c1ncnc2c1ccn2C[C@@H]1CCN(CC(N)=O)C[C@H]1O` (relative stereo) [P6-36″, rel-2-((3R,4R)-4-((4-(ethyl(2-fluoro-4-(1H-pyrazol-1-yl)benzyl)amino)-7H-pyrrolo[2,3-d]pyrimidin-7-yl)methyl)-3-hydroxypiperidin-1-yl)acetamide], for which the IC50 in test [2] (setting [3]) was 14 nM.

Values taken from patent US11780843B2, “Compounds active towards nuclear receptors” (NUEVOLUTION A/S, priority 2020, dated 2023).
